Assay results from paper PMC2650251 (Organic letters, 2008).

target: T1, PTP1B (Homo sapiens, UniProt P18031); assay: Kinetic constants of pY peptides against PTP1B; assay type: biochemical; settings: pH 7.4, peptide as substrate
T1 sequence (P18031 1-435): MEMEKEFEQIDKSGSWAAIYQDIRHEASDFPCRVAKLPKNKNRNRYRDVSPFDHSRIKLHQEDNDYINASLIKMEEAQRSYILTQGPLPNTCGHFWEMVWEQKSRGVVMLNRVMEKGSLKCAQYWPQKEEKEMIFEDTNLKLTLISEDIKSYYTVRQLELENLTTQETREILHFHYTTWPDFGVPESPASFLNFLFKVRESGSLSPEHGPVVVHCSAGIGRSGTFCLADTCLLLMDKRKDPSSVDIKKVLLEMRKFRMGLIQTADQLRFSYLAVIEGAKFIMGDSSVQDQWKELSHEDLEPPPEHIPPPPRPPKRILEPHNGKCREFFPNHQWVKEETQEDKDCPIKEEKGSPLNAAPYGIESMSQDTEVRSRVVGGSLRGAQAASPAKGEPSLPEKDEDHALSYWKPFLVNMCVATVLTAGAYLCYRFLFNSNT

Molecule | Km [µM] | kcat [s⁻¹] | kcat/KM [M⁻¹ s⁻¹]
DDTF2YDpYAA-NH2 [Peptide 6] | 13 ± 3 | 36 ± 2 | 2.7e+06
DDTYDpYAA-NH2 [Peptide 7] | 14 ± 2 | 33 ± 1 | 2.3e+06
DNLF2YpYWD-NH2 [Peptide 4] | 3.6 ± 0.4 | 36 ± 1 | 1e+07
REYEFpYAA-NH2 [Peptide 9] | 6 ± 0.7 | 33 ± 1 | 5.4e+06

tested on: not given; assay: not given; settings: cited from earlier work

Molecule | side chain pKa
N[C@@H](Cc1cc(F)c(O)c(F)c1)C(=O)O [Compound 1, 3,5-difluorotyrosine] | 7.2
